Measurements taken from PMC6677754, “In silico design and optimization of selective membranolytic anticancer peptides” (Scientific Reports, 2019).
Peptide text beside a SMILES is read from it.

System: single MCF7 cells
Assay: Microfluidics chip single-cell experiment
Type: cell-based, human
Details: single MCF7 cell in microfluidic chip, peptide 50 µM
Procedure: The AmphiArc2 peptide, the shortest peptide of the low micromolar active peptides, has a high hydrophobic moment (µH = 0.87) and a 180° arc of hydrophobic residues in an idealized helical structure (Fig. 1a). As determined by circular dichroism (CD) spectroscopy, the AmphiArc2 peptide is unstructured in pure water but adopts an alpha-helical structure in a hydrophobic environment (in 50% v/v water:2,2-trifluoroethanol, TFE) (Fig. 1b). […] To further investigate its membranolytic action, we observed the activity of AmphiArc2 on single MCF7 cells entrapped in a microfluidic chip.
The resultant sigmoidal curves were analyzed with the drc22 R package using a log-logistic model with 3 fixed parameters to obtain the HC50 values.
Microfluidics chip experiments
Single cell ACP action was observed on MCF7 cells entrapped in a microfluidic chip following the previously described methodology23. For visualization, cells were stained with calcein-AM at a 1 µM concentration. The calcein-AM penetrates into the cytosol of the cells and it is converted there by intracellular esterases to a fluorescent form that remains encapsulated in the cytosol. […]
in a microfuidic chip chamber after exposure to the AmphiArc2 peptide at a concentration of 50 µM. […] The loss of the cytosolic fluorescence corresponds to a permeabilization of the cell membrane. […]

With `CC[C@H](C)[C@H](NC(=O)[C@H](CCCNC(=N)N)NC(=O)[C@H](Cc1c[nH]c2ccccc12)NC(=O)[C@@H](NC(=O)[C@H](CCCCN)NC(=O)[C@H](CCCCN)NC(=O)[C@@H](NC(=O)[C@@H](NC(=O)[C@@H](NC(=O)[C@H](CCCCN)NC(=O)[C@H](Cc1ccccc1)NC(=O)[C@H](CCCCN)NC(=O)[C@H](CCCCN)NC(=O)[C@H](Cc1ccccc1)NC(=O)[C@@H](NC(=O)[C@@H](N)CCCCN)[C@@H](C)CC)[C@@H](C)O)[C@@H](C)CC)[C@@H](C)CC)C(C)C)C(=O)N[C@@H](Cc1ccccc1)C(=O)NCC(=O)N[C@@H](CCCNC(=N)N)C(=O)N[C@@H](Cc1ccccc1)C(N)=O` [AmphiArc2] (H-KIFKKFKTIIKKVWRIFGRF-NH2) the “morphological changes in the cell membrane and leakage of the cytosolic components, time after initial contact with the peptide” value (calcein-AM and anti-EpCAM stained, as early as) was 30 seconds and the “time after which the encapsulated dye had leaked out, membrane deformations and blebbing” value (calcein-AM stained) was 95 s.
